Tests used:
Type in all cases: in vivo
[1] = system: Alopecurus myosuroides (ALOMY); assay: Test Example 1, pre-emergence herbicidal test; conditions: 480 h, evaluated 20 days later, 100=total damage to plant, 0=no damage to plant
Method: (§1) Monocotyledonous and dicotyledonous test plants were sown in standard soil in pots. After cultivation for one day (pre-emergence) or after 10 days cultivation (post-emergence) under controlled conditions in a glasshouse, the plants were sprayed with an aqueous spray solution derived from the formulation of the technical active ingredient in 0.6 ml acetone and 45 ml formulation solution containing 10.6% Emulsogen EL (Registry number 61791-12-6), 42.2% N-methylpyrrolidone, 42.2% dipropylene glycol monomethyl ether (Registry number 34590-94-8) and 0.2% X-77 (Registry number 11097-66-8). The test plants were then grown in a greenhouse under optimum conditions until, 15 days later for post-emergence and 20 days for pre-emergence, the test was evaluated (100=total damage to plant; 0=no damage to plant). Test Plants: Lolium perenne (LOLPE), Setaria faberi (SETFA), Digitaria sanguinalis (DIGSA), Alopecurus myosuroides (ALOMY), Echinochloa crus-galli (ECHCG) and Avena fatua (AVEFA), Pre-Emergence Data: […]

Avena fatua (AVEFA) [2] = assay: Test Example 1, pre-emergence herbicidal test; conditions: 480 h, evaluated 20 days later, 100=total damage to plant, 0=no damage to plant
Method: as §1

[3] = system: Digitaria sanguinalis (DIGSA); assay: Test Example 1, pre-emergence herbicidal test; conditions: 480 h, evaluated 20 days later, 100=total damage to plant, 0=no damage to plant
Method: as §1

[4] = system: Echinochloa crus-galli (ECHCG); assay: Test Example 1, pre-emergence herbicidal test; conditions: 480 h, evaluated 20 days later, 100=total damage to plant, 0=no damage to plant
Method: as §1

Lolium perenne (LOLPE) [5] = assay: Test Example 1, pre-emergence herbicidal test; conditions: 480 h, evaluated 20 days later, 100=total damage to plant, 0=no damage to plant
Method: as §1

Setaria faberi (SETFA) [6] = assay: Test Example 1, pre-emergence herbicidal test; conditions: 480 h, evaluated 20 days later, 100=total damage to plant, 0=no damage to plant, read-out: SEFTA damage to plant
Method: as §1

[7] = system: Alopecurus myosuroides (ALOMY); assay: Test Example 1, post-emergence herbicidal test; conditions: 360 h, evaluated 15 days later, 100=total damage to plant, 0=no damage to plant
Method: as §1, with “Post-Emergence” for “Pre-Emergence”

Avena fatua (AVEFA) [8] = assay: Test Example 1, post-emergence herbicidal test; conditions: 360 h, evaluated 15 days later, 100=total damage to plant, 0=no damage to plant
Method: as §1, with “Post-Emergence” for “Pre-Emergence”

[9] = system: Digitaria sanguinalis (DIGSA); assay: Test Example 1, post-emergence herbicidal test; conditions: 360 h, evaluated 15 days later, 100=total damage to plant, 0=no damage to plant
Method: as §1, with “Post-Emergence” for “Pre-Emergence”

[10] = system: Echinochloa crus-galli (ECHCG); assay: Test Example 1, post-emergence herbicidal test; conditions: 360 h, evaluated 15 days later, 100=total damage to plant, 0=no damage to plant
Method: as §1, with “Post-Emergence” for “Pre-Emergence”

Lolium perenne (LOLPE) [11] = assay: Test Example 1, post-emergence herbicidal test; conditions: 360 h, evaluated 15 days later, 100=total damage to plant, 0=no damage to plant
Method: as §1, with “Post-Emergence” for “Pre-Emergence”

Setaria faberi (SETFA) [12] = assay: Test Example 1, post-emergence herbicidal test; conditions: 360 h, evaluated 15 days later, 100=total damage to plant, 0=no damage to plant, read-out: SEFTA damage to plant
Method: as §1, with “Post-Emergence” for “Pre-Emergence”

[13] = system: Alopecurus myosuroides (ALOMY); assay: Test Example B, pre-emergence herbicidal test; conditions: 312 h, evaluated after 13 days, 100=total damage to plant, 0=no damage to plant
Method: (§2) Seeds of a variety of test species were sown in standard soil in pots. After cultivation for one day (pre-emergence) or after 8 days cultivation (post-emergence) under controlled conditions in a glasshouse (at 24/16° C., day/night; 14 hours light; 65% humidity), the plants were sprayed with an aqueous spray solution derived from the formulation of the technical active ingredient in acetone/water (50:50) solution containing 0.5% Tween 20 (polyoxyethelyene sorbitan monolaurate, CAS RN 9005-64-5). The test plants were then grown in a glasshouse under controlled conditions in a glasshouse (at 24/16° C., day/night; 14 hours light; 65% humidity) and watered twice daily. After 13 days for pre and post-emergence, the test was evaluated (100=total damage to plant; 0=no damage to plant). Test Plants: Setaria faberi (SETFA), Alopecurus myosuroides (ALOMY), Echinochloa crus-galli (ECHCG), and Avena fatua (AVEFA).

Avena fatua (AVEFA) [14] = assay: Test Example B, pre-emergence herbicidal test; conditions: 312 h, evaluated after 13 days, 100=total damage to plant, 0=no damage to plant
Method: as §2

[15] = system: Echinochloa crus-galli (ECHCG); assay: Test Example B, pre-emergence herbicidal test; conditions: 312 h, evaluated after 13 days, 100=total damage to plant, 0=no damage to plant
Method: as §2

[16] = system: Alopecurus myosuroides (ALOMY); assay: Test Example B, post-emergence herbicidal test; conditions: 312 h, evaluated after 13 days, 100=total damage to plant, 0=no damage to plant
Method: as §2

Avena fatua (AVEFA) [17] = assay: Test Example B, post-emergence herbicidal test; conditions: 312 h, evaluated after 13 days, 100=total damage to plant, 0=no damage to plant
Method: as §2

[18] = system: Echinochloa crus-galli (ECHCG); assay: Test Example B, post-emergence herbicidal test; conditions: 312 h, evaluated after 13 days, 100=total damage to plant, 0=no damage to plant
Method: as §2

SMILES	pest or weed control at 250 g/ha [1] [%]	pest or weed control at 250 g/ha (Avena fatua (AVEFA) [2]) [%]	pest or weed control at 250 g/ha [3] [%]	pest or weed control at 250 g/ha [4] [%]	pest or weed control at 250 g/ha (Lolium perenne (LOLPE) [5]) [%]	pest or weed control at 250 g/ha (Setaria faberi (SETFA) [6]) [%]	pest or weed control at 125 g/ha [7] [%]	pest or weed control at 125 g/ha (Avena fatua (AVEFA) [8]) [%]	pest or weed control at 125 g/ha [9] [%]	pest or weed control at 125 g/ha [10] [%]	pest or weed control at 125 g/ha (Lolium perenne (LOLPE) [11]) [%]	pest or weed control at 125 g/ha (Setaria faberi (SETFA) [12]) [%]	pest or weed control at 250 g/ha [13] [%]	pest or weed control at 250 g/ha (Avena fatua (AVEFA) [14]) [%]	pest or weed control at 250 g/ha [15] [%]	pest or weed control at 250 g/ha [16] [%]	pest or weed control at 250 g/ha (Avena fatua (AVEFA) [17]) [%]	pest or weed control at 250 g/ha [18] [%]
Cc1cc(C)c(C2=C(O)[C@H]3[C@H]4CC[C@H](C4)[C@H]3C2=O)c(C)c1 (racemic) [Compound T50, rac-(5S,6S,7R)-2-(2,4,6-trimethylphenyl)hexahydro-4,7-methanoindene-1,3-dione]	70	50	80	70	100	100	30	10	30	20	30	0						
CCc1cc(C)cc(CC)c1C1=C(O)[C@H]2[C@H]3CC[C@H](C3)[C@H]2C1=O [Compound T49]	100	70	100	100	100	100	100	80	100	100	100	100						
CCc1ccc(-c2cc(Cl)sc2Cl)cc1C1=C(O)[C@H]2[C@H]3CC[C@H](CC3)[C@H]2C1=O [Compound T15]													0	0	30	40	30	80
CCc1ccc(-c2ccc(Cl)c(F)c2Cl)cc1C1=C(O)[C@H]2[C@H]3CC[C@H](C3)[C@H]2C1=O [Compound T39]													40	70	100	70	50	100
CCc1ccc(-c2ccc(Cl)s2)cc1C1=C(O)[C@H]2[C@H]3CC[C@H](CC3)[C@H]2C1=O [Compound T17]													80	90	100	40	50	90
CCc1ccc(-c2ccc(Cl)cc2)cc1C1=C(O)[C@@H]2[C@H](C1=O)[C@@H]1C=C[C@H]2CC1 (racemic) [Compound T6, rac-(3aR,4S,7R,7aS)-2-(4′-chloro-4-ethylbiphenyl-3-yl)-3a,4,7,7a-tetrahydro-4,7-ethanoindene-1,3-dione]													60	40	100	70	60	100
CCc1ccc(-c2ccc(Cl)cc2Cl)cc1C1=C(O)[C@H]2[C@H]3CC[C@H](CC3)[C@H]2C1=O [Compound T11]													0	0	60	90	100	100
CCc1ccc(-c2ccc(Cl)cc2C)cc1C1=C(O)[C@H]2[C@H]3CC[C@H](CC3)[C@H]2C1=O [Compound T12]													60	20	100	90	40	100
CCc1ccc(-c2ccc(Cl)cc2C)cc1C1=C(O)[C@H]2[C@H]3CC[C@H](C3)[C@H]2C1=O [Compound T30]													40	30	100	0	0	90
CCc1ccc(-c2ccc(Cl)s2)cc1C1=C(O)[C@H]2[C@H]3CC[C@H](C3)[C@H]2C1=O [Compound T34]													30	40	100	60	80	90
CCc1ccc(-c2c(F)cc(Cl)cc2Cl)cc1C1=C(O)[C@H]2[C@H]3CC[C@H](C3)[C@H]2C1=O [Compound T38]													0	0	80	30	40	90
CCc1ccc(-c2ccc(Cl)c(Cl)c2F)cc1C1=C(O)[C@H]2[C@H]3CC[C@H](C3)[C@H]2C1=O [Compound T41]													0	0	50	0	60	90
CCc1ccc(-c2ccc(Cl)c(C(F)(F)F)c2)cc1C1=C(O)[C@H]2[C@H]3CC[C@H](C3)[C@H]2C1=O [Compound T33]													20	30	100	70	70	90
CCc1ccc(-c2ccc(F)cc2)cc1C1=C(O)[C@H]2[C@H]3CC[C@H](CC3)[C@H]2C1=O [Compound T46]													20	0	80	50	30	100
CCc1ccc(-c2ccc(Cl)cc2F)cc1C1=C(O)[C@H]2[C@H]3CC[C@H](C3)[C@H]2C1=O (racemic) [Compound T28, rac-(3aR,4R,7S,7aS)-2-(4′-chloro-4-ethyl-2′-fluorobiphenyl-3-yl)-hexahydro-4,7-methanoindene-1,3-dione]													60	90	100	30	10	90

— US20120065066A1, “NOVEL HERBICIDES” (SYNGENTA CROP PROTECTION LLC, priority 2009, published 2012)
